Measured values taken from article PMC5041153, “Presumed LRP1-targeting transport peptide delivers β-secretase inhibitor to neurons in vitro with limited efficiency” (Scientific Reports, 2016).
Where a SMILES comes first, the peptide text is derived from it. [ ]: non-standard residue; d: D form. Sta = CC(C)C[C@H](N)[C@@H](O)CC(=O)O

Columns and labels:
SH-SY5Y wild-type cells = details: 30 min pre-treatment, 1 h incubation, flow cytometry, n = 3; for decrease of uptake in the presence of Dynasore: 100 μM Dynasore, serum-free medium, 3 μM peptide or 5 μg/mL transferrin; for decrease of uptake on treatment with EIPA: 60 μM EIPA, 3 μM peptide or 0.75 mg/mL 70 kDa dextran
Protocol: Cell fluorescence distributions of cells treated with (a) 100 μM Dynasore or (b) 60 μM EIPA. […] Background cell fluorescence of only inhibitor-treated cells is shown (grey). Distributions shown are representative examples of three independent experiments. (c,d) Mean cell fluorescence intensity of the distributions shown in (a) or (b), respectively. The markers transferrin (Trf) and Dextran are shown for reference. (e) Frequency of cells in each of the two subpopulations (Negative or Positive) present upon treatment with ANG, as defined by the gates shown in the fluorescence distribution in (b). Numerical data are represented as mean ± SD (n = 3). *P ≤ 0.05 and **P ≤ 0.01, one-way ANOVA followed by Dunnet test.
For the pharmacological inhibition of endocytosis, we used Dynasore to inhibit clathrin-mediated endocytosis and 5-(N-Ethyl-N-isopropyl)amiloride (EIPA) to block macropinocytosis. […] To verify their inhibitory effects, we used fluorescently labeled human transferrin and 70 kDa dextran, respectively. […] Dynasore-treated cells were washed thrice with acidic wash buffer (0.2 M acetic acid and 0.2 M NaCl) and once with PBS prior to being harvested with trypsin for their analysis by flow cytometry. EIPA-treated cells were washed once with PBS, twice with acetate wash buffer (0.1 M sodium acetate and 0.05 M NaCl, pH 5.5) for 5 min each, and finally once more with PBS prior to being harvested with trypsin for their analysis by flow cytometry.

BACE1 = target: T1, BACE1 (Homo sapiens, UniProt P56817); assay: Activity test on human neurons: Aβ38, Aβ40, Aβ42 in supernatant by ELISA; format: cell-based; details: 6 h, swAPP SH-SY5Y cells
T1 construct: SH-SY5Y cells overexpressing either Swedish-mutant APP or the isoforms APP695 or APP751 were seeded in 24-well plates; endogenous in cells; host or cells: SH-SY5Y cells overexpressing Swedish-mutant APP (also APP695 or APP751 lines)
Protocol: Figure 5 BACE1-inhibitory activity of the bioconjugates. […] The content of Aβ peptides was measured in the cells’ supernatant upon treatment and normalized setting the values of control DMSO-treated cells as 100% (Mean ± SD, n = 3–6). […] GAPDH was used as loading control. (b) Inhibitory activity of the ANG-SI bioconjugate at a range of concentrations (5–100 μM) after 6 h incubation with swAPP cells (Mean ± SD, n = 3–6). *P ≤ 0.05, **P ≤ 0.01, ***P ≤ 0.001, ****P ≤ 0.0001, one-way ANOVA followed by Dunnet test.
Supernatant from the tissue culture plates was then collected in low protein-binding tubes and analyzed by enzyme-linked immunosorbent assay with the Multi-Spot Assay System from Meso Scale Discovery (Rockville, MD) detecting human Aβ38, Aβ40 and Aβ42 peptides (#K15200E,) following manual’s instructions. The values obtained for the different conjugates varied in intensity (Aβ42 ~70,000 RU, Aβ40 ~400,000 RU and Aβ38 ~4,000 RU) and were normalized for the basal Aβ level detected in the supernatant of DMSO-treated cells, which was set as 100%.

purified BACE1 enzyme = target: T2, purified BACE1 enzyme (Homo sapiens, UniProt P56817); assay: Activity test against purified BACE1 enzyme (cell-free, SensoLyte 520 β-secretase assay kit); format: biochemical; details: cell-free assay of purified BACE1; mean of n = 3, except ANG-PEG-SI n = 2; CI 95% printed alongside; read-out: IC50 (concentration at which 50% of relative cleavage was achieved)
T2 construct: purchased AnaSpec (Fremont, CA)
Protocol: Figure 1 Peptidic bioconjugates and their activity on purified BACE1 enzyme. (a) Scheme of the main bioconjugates used in this study with their corresponding sequences.
A range of concentrations of the different bioconjugates were tested in a cell-free assay of purified BACE1 enzyme using the SensoLyte 520 β–secretase assay kit from AnaSpec (Fremont, CA) following manufacturer’s guidelines.

SH-SY5Y cells = assay: Cellular internalization of TAMRA-labeled peptides by flow cytometry; format: cell-based, human; details: FBS-supplemented medium, n = 3
Protocol: Figure 2 Cellular internalization of peptidic bioconjugates in SH-SY5Y neurons. Mean cell fluorescence intensity was measured by flow cytometry after continuous incubation with the fluorescent TAMRA-labeled bioconjugates in FBS-supplemented medium for increasing time periods. Values were normalized against the fluorescence background of untreated cells and expressed as fold increase. (a) Internalization kinetics of ANG-SI, ANG or SI at 1 μM (mean ± SD, n = 3). (b) Energy-dependence of the internalization of ANG-SI at 37 °C and 4 °C (mean ± SD, n = 3). ***P ≤ 0.001 and ****P ≤ 0.0001, unpaired Student’s t test. (c) Confocal images of cells incubated with ANG-SI, ANG or SI (red) for 1 h. Cells’ perimeter and nuclei have been delineated for reference. Scale bar 10 μm. […]
To study the uptake of the ANG conjugates, cells were incubated with the different fluorescently labeled peptides at 1 μM in FBS-supplemented medium for increasing periods of time, after which they were washed according to previously established protocols[50] and harvested with trypsin for their analysis by flow cytometry. The mean fluorescence values obtained from the analysis were normalized against the background fluorescence of untreated cells and were presented as fold-increase of this intensity. […]

wild type SH-SY5Y cells = format: cell-based, human; details: 5 μM, continuous exposure over 72 h, RTCA xCELLigence
Protocol: Figure S7 – Activity of the TAT-SI and TRP-SI bioconjugates on swAPP-overexpressing SH-SY5Y cells. […]
μM in FBS-supplemented medium. Mean ± SD (n=3). **P<0.01 and ****P<0.0001, one-way ANOVA followed […]
Figure S8 – Cytotoxicity of the peptides. Cell growth was monitored over 72 h using wild type SH-SY5Y cells during continuous exposure to the peptides at 5 μM using a Real-Time Cell Analysis (RTCA) xCELLigence system from Roche (Rotkreuz, Switzerland). Briefly, cells were seeded on the E-plates (10,000 cells/well) and after one day the medium was replaced by fresh medium containing the corresponding peptide and the cells were grown for 72 h. Cell growth was monitored with the RTCA system over 72 h during continuous exposure to the peptides at 5 μM. […]

T1 sequence (P56817 46-501): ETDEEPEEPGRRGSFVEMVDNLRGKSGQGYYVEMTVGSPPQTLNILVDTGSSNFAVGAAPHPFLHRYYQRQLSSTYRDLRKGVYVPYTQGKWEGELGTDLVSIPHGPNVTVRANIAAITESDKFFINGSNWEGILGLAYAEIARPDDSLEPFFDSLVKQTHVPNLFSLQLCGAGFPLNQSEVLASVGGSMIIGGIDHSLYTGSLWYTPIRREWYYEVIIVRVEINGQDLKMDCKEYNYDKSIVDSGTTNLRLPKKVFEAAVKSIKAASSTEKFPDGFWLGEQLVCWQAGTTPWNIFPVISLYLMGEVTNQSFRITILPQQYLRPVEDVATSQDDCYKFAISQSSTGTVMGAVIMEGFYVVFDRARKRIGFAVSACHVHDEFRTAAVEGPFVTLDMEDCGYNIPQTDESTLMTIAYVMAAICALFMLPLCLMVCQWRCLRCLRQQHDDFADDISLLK
T2 sequence (P56817 46-501): as above

“transferrin: fluorescently labeled human transferrin, clathrin-mediated endocytosis marker [reference compound]” was tested, and the “decrease of uptake in the presence of Dynasore” value (SH-SY5Y wild-type cells) was ~ 35%.
With “EVN-statine-VAEF-PEG-TFFYGGSRGKRNNFKTEEY [ANG-PEG-SI, ANG and SI joined by an inert poly(ethylene glycol) linker]” the “effect on Aβ peptide levels (cellular activity)” value (BACE1; 5 μM, FBS-supplemented medium, normalized to DMSO-treated cells) was “did not show cellular activity” and the IC50 (purified BACE1 enzyme) was 0.0871 µM.
In the case of `C[C@@]1(c2cc(-c3cncnc3)c(F)cc2F)CCSC(N)=N1` [LY2811376, reference compound], the “decrease of the levels of Aβ peptides 38, 40 and 42 in supernatant” value (BACE1; 5 μM, FBS-supplemented medium, normalized to DMSO-treated cells = 100%, n = 3–6) is reported as > 90%.
For “EVN-statine-VAEFTFFYGGSRGKRNNFKTEEY (N-terminal EVN-statine) [ANG-SI, SI coupled to the transport peptide ANG]”, the “decrease in the enzymatic activity of BACE1” value (BACE1; concentrations five times higher than 5 μM, n = 3–6) was ~ 25%, the “decrease in the enzymatic activity of BACE1” value (BACE1; concentrations twenty times higher than 5 μM, n = 3–6) was ~ 60% and the “decrease of uptake on treatment with EIPA” value (SH-SY5Y wild-type cells) was 50%. The “decrease of uptake in the presence of Dynasore” value (SH-SY5Y wild-type cells) was 20%, the “internalization into cells (mean cell fluorescence intensity)” value (SH-SY5Y cells; TAMRA-labeled peptide, 1 μM, up to 5 h continuous incubation, 37 °C) was “taken up by cells” and the “internalization at 4 °C instead of 37 °C (energy dependence)” value (SH-SY5Y cells; TAMRA-labeled, 1 h pre-incubation at 4 °C) was “significantly decreased”.
With `CC[C@H](C)[C@H](NC(=O)[C@H](CCCCN)NC(=O)[C@H](CCCCN)NC(=O)[C@H](C)NC(=O)[C@H](CC(C)C)NC(=O)[C@H](C)NC(=O)[C@H](C)NC(=O)[C@H](CC(C)C)NC(=O)[C@H](C)NC(=O)[C@H](CCCCN)NC(=O)[C@H](CC(C)C)NC(=O)[C@H](CC(N)=O)NC(=O)[C@@H](NC(=O)[C@H](CCCCN)NC(=O)CNC(=O)[C@H](CC(C)C)NC(=O)[C@H](CC(C)C)NC(=O)[C@H](Cc1ccc(O)cc1)NC(=O)CNC(=O)[C@H](C)NC(=O)[C@H](CO)NC(=O)[C@H](CC(N)=O)NC(=O)[C@H](CC(C)C)NC(=O)[C@@H](NC(=O)[C@H](Cc1c[nH]c2ccccc12)NC(=O)CNC(=O)[C@H](Cc1ccccc1)NC(=O)[C@H](CCC(=O)O)NC(=O)[C@H](C)NC(=O)[C@@H](NC(=O)C[C@H](O)[C@H](CC(C)C)NC(=O)[C@H](CC(N)=O)NC(=O)[C@@H](NC(=O)[C@@H](N)CCC(=O)O)C(C)C)C(C)C)[C@@H](C)O)[C@@H](C)CC)C(=O)N[C@@H](CC(C)C)C(=O)O` [TRP-SI] (H-EVN[Sta]VAEFGWTLNSAGYLLGKINLKALAALAKKIL-OH) the “cytotoxicity (cell growth)” value (wild type SH-SY5Y cells) was “cytotoxic effect”.
In the case of dextran [reference compound], the “decrease of uptake on treatment with EIPA” value (SH-SY5Y wild-type cells) is reported as 50%.
